Source: US11844808B2, “Methods and compositions for treating pre-eclampsia” (Women & Infants Hospital of Rhode Island, priority 2018, dated 2023)

Tests used:
pregnant IL10-/- mice = assay: Mouse model of PE: severe PE serum in pregnant IL10-/- mice; assay type: in vivo; details: for preeclampsia-like features (hypertension, proteinuria, growth restriction, kidney injury): PE serum at gd10 in IL-10-/- mice, 2 g/kg i.p. at gd9, or gd11 and gd14, or gd9, gd11 and gd14, readout gd17
Method: (§1) FIGS. 16 and 17. Based on the results in the cellular model of PE, the effect of Trehalose treatment in an animal model of PE was evaluated next in an established mouse model of PE by a single administration of severe PE serum in pregnant IL10^−/− mice at gd10^22. Using this model, mice were injected intraperitoneally with vehicle, Trehalose (2 g/kg), maltose, or D-glucose (2 g/kg) at gestational day (gd) 9 (a single dose before serum injection), at gd11 and gd14 (two doses after serum injection), or at gd9, gd11 and gd14 (one dose before and two doses after serum injection) (FIG. 16). At gd17, urine was collected, blood pressure was measured, and fetal weight was recorded (FIG. 17A-D). Kidney was fixed and processed for H&E staining for glomerular endotheliosis (FIG. 17E). As reported previously, administration of severe PE sera, not normal pregnancy sera, at gd10 recapitulated a full spectrum of PE-like manifestations in IL-10^−/− mice, including hypertension, proteinuria, renal injury and fetal growth restriction (FIG. 17).

[1] = tested on: LAMP1/2, TFEB and cathepsin D; assay: Expression of LAMP1/2, TFEB and cathepsin D in hypoxia-exposed primary trophoblast cells; assay type: cell-based, human
Method: FIG. 15. To investigate the underlying mechanisms, it was evaluated whether Trehalose can enhance the activities of autophagy-lysosomal degradation pathway, the machinery responsible for clearance of protein aggregates. To this end, the signaling molecules of this machinery such as LAMP1/2, TFEB and cathepsin D were examined in primary trophoblast cells in response to hypoxia stimulation with and without Trehalose treatment.

Pin1 = Pin1 immunostaining in nuclei of hypoxia-exposed primary trophoblast cells; assay type: cell-based, human; details: trehalose 50 mM, 1% O2, 3 days
Method: (§2) Human primary trophoblast cells (ScienCell Research Laboratories) were plated on glass coverslips and cultured in trophoblast medium supplemented with 5% fetal bovine serum, 1% trophoblast growth supplement and 1% penicillin/streptomycin (ScienCell Research Laboratories) in a humidified atmosphere with 5% CO2 at 37° C. Cells were washed three times with Dulbecco's phosphate-buffered saline and cultured in serum-free trophoblast medium prior to exposure to low oxygen tension (1% O2) or normoxia (20% O2) for 3 days. Cells were fixed with 4% formaldehyde in PBS for 15 min, permeabilized and then stained with ProteoStat® dye.
Primary trophoblast cells were treated with vehicle or trehalose (50 mM), exposed to low oxygen tension (1% O2) or normoxia, and fixed at 3 days. After permeabilized and blocked in PBS solution containing 1% Triton-X, 3% BSA and normal donkey serum for 30 min, cells were immunostained for […] with mouse anti-Pin1 antibody and then with Alexa Fluor 488 donkey anti-mouse secondary antibody. Cells were then mounted in anti-quench mounting medium with DAPI.

[2] = tested on: protein aggregates in primary trophoblast cells; assay: ProteoStat staining of protein aggregates in hypoxia-exposed primary trophoblast cells; assay type: cell-based, human; details: 1% O2, 3 days
Method: Human primary trophoblast cells (ScienCell Research Laboratories) were plated on glass coverslips and cultured in trophoblast medium supplemented with 5% fetal bovine serum, 1% trophoblast growth supplement and 1% penicillin/streptomycin (ScienCell Research Laboratories) in a humidified atmosphere with 5% CO2 at 37° C. Cells were washed three times with Dulbecco's phosphate-buffered saline and cultured in serum-free trophoblast medium prior to exposure to low oxygen tension (1% O2) or normoxia (20% O2) for 3 days. Cells were fixed with 4% formaldehyde in PBS for 15 min, permeabilized and then stained with ProteoStat® dye. […] FIG. 14. The effect of Trehalose on protein aggregation was examined in primary trophoblast cells in response to hypoxia, a useful cellular model of PE. Primary trophoblast cells were cultured under normoxic and hypoxic (1% O2) culture conditions for 3 days, treated with vehicle, Trehalose, maltose, sucrose or D-glucose and then fixed for staining or lysed for Western blotting. ProteoStat, a dye with high affinity to aggregated proteins, was used to detect protein aggregates in treated and untreated cells.

[3] = tested on: placenta of pre-eclamptic mice; assay: Placentas of pre-eclamptic mice: ProteoStat signal and cathepsin D expression; assay type: in vivo, mouse; details: all dose regimens
Method: as §1
FIG. 18. Furthermore, the molecular events that underlie effects of Trehalose in pre-eclamptic mice were interrogated. The placentas from Trehalose-treated mice and controls were assessed for the abundance of aggregated proteins and expression of molecules in autophagy-lysosomal pathway.

[4] = FDA; safety studies in mice, rats, and rabbits including in pregnancy; cited from earlier work
pS71-Pin1 = pS71-Pin1 immunostaining in nuclei of hypoxia-exposed primary trophoblast cells; assay type: cell-based, human; details: trehalose 50 mM, 1% O2, 3 days
Method: as §2
Primary trophoblast cells were treated with vehicle or trehalose (50 mM), exposed to low oxygen tension (1% O2) or normoxia, and fixed at 3 days. After permeabilized and blocked in PBS solution containing 1% Triton-X, 3% BSA and normal donkey serum for 30 min, cells were immunostained for pS71-Pin1 with rabbit anti-pS71-Pin1 antibody and then with Alexa Fluor 488 donkey anti-rabbit secondary antibody. Cells were then mounted in anti-quench mounting medium with DAPI.

cis-P-tau = cis-P-tau immunostaining in hypoxia-exposed primary trophoblast cells; assay type: cell-based, human; details: trehalose 50 mM, 1% O2, 3 days
Method: as §2
Primary trophoblast cells were treated with vehicle or trehalose (50 mM), exposed to low oxygen tension (1% O2) or normoxia, and fixed at 3 days. After permeabilized and blocked in PBS solution containing 1% Triton-X, 3% BSA and normal donkey serum for 30 min, cells were immunostained for cis-P-tau and mounted in anti-quench mounting medium with DAPI.

[5] = tested on: components of autophagy-lysosomal machinery; assay: Western blot of autophagy markers in hypoxia-exposed primary trophoblast cells; assay type: cell-based, human; details: trehalose 50 mM, 1% O2, 3 days
Method: Primary trophoblast cells were treated with vehicle or trehalose (50 mM), exposed to low oxygen tension (1% O2) or normoxia, and fixed at 3 days. Cells were harvested and lysed in RIPA lysis buffer containing protease inhibitors cocktail (Sigma). Proteins were separated by 4-12% SDS-PAGE and transferred into PVDF membrane. After blocking with 5% nonfat milk in PBS-tween (PBS-T) buffer for 30 min, the transferred membrane was incubated overnight in indicated primary antibodies, diluted in 3% or 5% BSA in PBS-T buffer, at 4° C. The membrane was washed three times, incubated for 1 h at room temperature with HRP-conjugated goat anti-rabbit/mouse IgG (Cell signaling), and then treated with enhanced chemiluminescent substrate (Thermofisher) and exposed on film.

TCL-1 cells = assay: Autophagy-lysosomal machinery and protein aggregates in trophoblast cell line TCL-1 under hypoxia; assay type: cell-based, human

Row | Structure (SMILES) | preeclampsia-like features (hypertension, proteinuria, growth restriction, kidney injury) (pregnant IL10-/- mice) | hypoxia-induced downregulation of LAMP1/2, TFEB and cathepsin D [1] | hypoxia-induced downregulation of nuclear Pin1 expression (Pin1) | hypoxia-induced accumulation of protein aggregates (ProteoStat signal) [2] | hypoxia-induced accumulation of protein aggregates (ProteoStat signal) ([2]; listed as trehalose) | expression of cathepsin D in placenta [3] | protein aggregates in placenta (ProteoStat signal) ([3]; labyrinth, junctional zone and decidua) | safety status [4] | hypoxia-induced upregulation of nuclear pS71-Pin1 expression (pS71-Pin1) | effect in mice administered normal pregnancy sera (pregnant IL10-/- mice; normal pregnancy serum, IL-10-/- mice, 2 g/kg i.p.) | hypoxia-induced upregulation of cis-P-tau (cis-P-tau) | hypoxia-induced downregulation of components of autophagy-lysosomal machinery (Western blot) [5] | autophagy-lysosomal machinery and aggregate clearance under hypoxia (TCL-1 cells)
1 | OC[C@H]1O[C@H](O[C@H]2[C@H](O)[C@@H](O)C(O)O[C@@H]2CO)[C@H](O)[C@@H](O)[C@@H]1O (mixture of isomers) [maltose, reference compound] | failed to rescue PE-like features | not easily observed |  |  |  |  |  |  |  |  |  |  | 
2 | O=C[C@H](O)[C@@H](O)[C@H](O)[C@H](O)CO [D-glucose, reference compound] | failed to rescue PE-like features | not easily observed |  |  |  |  |  |  |  |  |  |  | 
3 | OC[C@H]1O[C@H](O[C@H]2O[C@H](CO)[C@@H](O)[C@H](O)[C@H]2O)[C@H](O)[C@@H](O)[C@@H]1O [Trehalose] | significantly reversed preeclampsia-like features | significantly rescued hypoxia-induced downregulation of these molecules | blocked hypoxia-induced downregulation of nuclear Pin expression | significantly rescued hypoxia-induced accumulation of protein aggregates | inhibits protein aggregation | rescued the expression of cathepsin D | significantly decreased protein aggregates | generally regarded as safe | inhibited hypoxia-induced upregulation of nuclear pS71-Pin1 expression | did not have obvious effect | blocked hypoxia-induced upregulation of cis-P-tau | blocked hypoxia-induced downregulation of these proteins | restores autophagy machinery
